From the supplement of paper PMC10307832

Experiments:
Assay in all cases: relative viability (nuclei count vs DMSO), 5 days (fraction); higher = more cells survive
NCI-H838 = tested on: NCI-H838
Summary of the method: (§1)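 Nuclei were stained with Hoechst during a one-step fixation (final 0.05% Triton X-100, 1% formaldehyde, 1 ug/ml Hoechst) carried out 5 days after dosing, then counted on 4× images. The cells, lung cancer lines in 1536-well plates, had been dosed by pin tool the day after seeding with one drug alone or a fixed anchor-drug dose plus five library-drug doses (not always all listed) in √10 steps. Relative viability is the nuclei count in treated wells divided by that in vehicle wells, and each value is the median of duplicate plates.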

NCI-H358 = tested on: NCI-H358
Summary of the method: as §1

NCI-H1666 = tested on: NCI-H1666
Summary of the method: as §1

NCI-H1944 = tested on: NCI-H1944
Summary of the method: as §1

LCLC-97TM1 = tested on: LCLC-97TM1
Summary of the method: as §1

LU99A = tested on: LU99A
Summary of the method: as §1

HCC-78 = tested on: HCC-78
Summary of the method: as §1

NCI-H1355 = tested on: NCI-H1355
Summary of the method: as §1

NCI-H1975 = tested on: NCI-H1975
Summary of the method: as §1

LXF-289 = tested on: LXF-289
Summary of the method: as §1

NCI-H650 = tested on: NCI-H650
Summary of the method: as §1

LK-2 = tested on: LK-2
Summary of the method: as §1

NCI-H596 = tested on: NCI-H596
Summary of the method: as §1

ChaGo-K-1 = tested on: ChaGo-K-1
Summary of the method: as §1

NCI-H661 = tested on: NCI-H661
Summary of the method: as §1

BEN = tested on: BEN
Summary of the method: as §1

PC-3 [JPC-3] = tested on: PC-3 [JPC-3]
Summary of the method: as §1

NCI-H2342 = tested on: NCI-H2342
Summary of the method: as §1

NCI-H1651 = tested on: NCI-H1651
Summary of the method: as §1

LC-2-ad = tested on: LC-2-ad
Summary of the method: as §1

SK-MES-1 = tested on: SK-MES-1
Summary of the method: as §1

NCI-H2087 = tested on: NCI-H2087
Summary of the method: as §1

Nc1ccn([C@@H]2O[C@H](CO)[C@@H](O)[C@@H]2O)c(=O)n1 [Cytarabine] + Cc1cc(Nc2cc(N3CCN(C)CC3)nc(Sc3ccc(NC(=O)C4CC4)cc3)n2)n[nH]1 [Tozasertib] (partner 0.1 µM)
relative viability (NCI-H838; first compound 0.005 µM): 0.29
relative viability (NCI-H838; first compound 0.01581 µM): 0.319
relative viability (NCI-H838; first compound 0.05 µM): 0.231
relative viability (NCI-H838; first compound 0.1581 µM): 0.231
relative viability (NCI-H838; first compound 0.5 µM): 0.161
relative viability (NCI-H358; first compound 0.005 µM): 0.102
relative viability (NCI-H358; first compound 0.01581 µM): 0.0922
relative viability (NCI-H358; first compound 0.05 µM): 0.1
relative viability (NCI-H358; first compound 0.1581 µM): 0.097
relative viability (NCI-H358; first compound 0.5 µM): 0.0847
relative viability (NCI-H1666; first compound 0.005 µM): 0.559
relative viability (NCI-H1666; first compound 0.01581 µM): 0.628
relative viability (NCI-H1666; first compound 0.05 µM): 0.469
relative viability (NCI-H1666; first compound 0.1581 µM): 0.446
relative viability (NCI-H1666; first compound 0.5 µM): 0.423
relative viability (NCI-H1944; first compound 0.005 µM): 0.211
relative viability (NCI-H1944; first compound 0.01581 µM): 0.195
relative viability (NCI-H1944; first compound 0.05 µM): 0.184
relative viability (NCI-H1944; first compound 0.1581 µM): 0.149
relative viability (NCI-H1944; first compound 0.5 µM): 0.114
relative viability (LCLC-97TM1; first compound 0.005 µM): 0.248
relative viability (LCLC-97TM1; first compound 0.01581 µM): 0.247
relative viability (LCLC-97TM1; first compound 0.05 µM): 0.235
relative viability (LCLC-97TM1; first compound 0.1581 µM): 0.207
relative viability (LCLC-97TM1; first compound 0.5 µM): 0.174
relative viability (LU99A; first compound 0.005 µM): 0.263
relative viability (LU99A; first compound 0.01581 µM): 0.273
relative viability (LU99A; first compound 0.05 µM): 0.275
relative viability (LU99A; first compound 0.1581 µM): 0.288
relative viability (LU99A; first compound 0.5 µM): 0.281
relative viability (HCC-78; first compound 0.005 µM): 0.518
relative viability (HCC-78; first compound 0.01581 µM): 0.489
relative viability (HCC-78; first compound 0.05 µM): 0.389
relative viability (HCC-78; first compound 0.1581 µM): 0.333
relative viability (HCC-78; first compound 0.5 µM): 0.253
relative viability (NCI-H1355; first compound 0.005 µM): 0.52
relative viability (NCI-H1355; first compound 0.01581 µM): 0.524
relative viability (NCI-H1355; first compound 0.05 µM): 0.484
relative viability (NCI-H1355; first compound 0.1581 µM): 0.269
relative viability (NCI-H1355; first compound 0.5 µM): 0.314
relative viability (NCI-H1975; first compound 0.005 µM): 0.681
relative viability (NCI-H1975; first compound 0.01581 µM): 0.799
relative viability (NCI-H1975; first compound 0.05 µM): 0.728
relative viability (NCI-H1975; first compound 0.1581 µM): 0.317
relative viability (NCI-H1975; first compound 0.5 µM): 0.206
relative viability (LXF-289; first compound 0.005 µM): 0.244
relative viability (LXF-289; first compound 0.01581 µM): 0.182
relative viability (LXF-289; first compound 0.05 µM): 0.13
relative viability (LXF-289; first compound 0.1581 µM): 0.0999
relative viability (LXF-289; first compound 0.5 µM): 0.0753
relative viability (NCI-H650; first compound 0.005 µM): 0.595
relative viability (NCI-H650; first compound 0.01581 µM): 0.513
relative viability (NCI-H650; first compound 0.05 µM): 0.34
relative viability (NCI-H650; first compound 0.1581 µM): 0.249
relative viability (NCI-H650; first compound 0.5 µM): 0.176
relative viability (LK-2; first compound 0.005 µM): 0.213
relative viability (LK-2; first compound 0.01581 µM): 0.185
relative viability (LK-2; first compound 0.05 µM): 0.168
relative viability (LK-2; first compound 0.1581 µM): 0.157
relative viability (LK-2; first compound 0.5 µM): 0.215
relative viability (NCI-H596; first compound 0.005 µM): 1.03
relative viability (NCI-H596; first compound 0.01581 µM): 0.945
relative viability (NCI-H596; first compound 0.05 µM): 0.712
relative viability (NCI-H596; first compound 0.1581 µM): 0.589
relative viability (NCI-H596; first compound 0.5 µM): 0.469
relative viability (ChaGo-K-1; first compound 0.005 µM): 0.188
relative viability (ChaGo-K-1; first compound 0.01581 µM): 0.207
relative viability (ChaGo-K-1; first compound 0.05 µM): 0.208
relative viability (ChaGo-K-1; first compound 0.1581 µM): 0.16
relative viability (ChaGo-K-1; first compound 0.5 µM): 0.149
relative viability (NCI-H661; first compound 0.005 µM): 0.371
relative viability (NCI-H661; first compound 0.01581 µM): 0.368
relative viability (NCI-H661; first compound 0.05 µM): 0.351
relative viability (NCI-H661; first compound 0.1581 µM): 0.349
relative viability (NCI-H661; first compound 0.5 µM): 0.364
relative viability (BEN; first compound 0.005 µM): 0.427
relative viability (BEN; first compound 0.01581 µM): 0.519
relative viability (BEN; first compound 0.05 µM): 0.569
relative viability (BEN; first compound 0.1581 µM): 0.63
relative viability (BEN; first compound 0.5 µM): 0.563
relative viability (PC-3 [JPC-3]; first compound 0.005 µM): 0.726
relative viability (PC-3 [JPC-3]; first compound 0.01581 µM): 0.826
relative viability (PC-3 [JPC-3]; first compound 0.05 µM): 0.966
relative viability (PC-3 [JPC-3]; first compound 0.1581 µM): 0.704
relative viability (PC-3 [JPC-3]; first compound 0.5 µM): 0.665
relative viability (NCI-H2342; first compound 0.005 µM): 0.507
relative viability (NCI-H2342; first compound 0.01581 µM): 0.616
relative viability (NCI-H2342; first compound 0.05 µM): 0.496
relative viability (NCI-H2342; first compound 0.1581 µM): 0.506
relative viability (NCI-H2342; first compound 0.5 µM): 0.459
relative viability (NCI-H1651; first compound 0.005 µM): 0.688
relative viability (NCI-H1651; first compound 0.01581 µM): 0.707
relative viability (NCI-H1651; first compound 0.05 µM): 0.746
relative viability (NCI-H1651; first compound 0.1581 µM): 0.577
relative viability (NCI-H1651; first compound 0.5 µM): 0.206
relative viability (LC-2-ad; first compound 0.005 µM): 0.415
relative viability (LC-2-ad; first compound 0.01581 µM): 0.452
relative viability (LC-2-ad; first compound 0.05 µM): 0.418
relative viability (LC-2-ad; first compound 0.1581 µM): 0.39
relative viability (LC-2-ad; first compound 0.5 µM): 0.301
relative viability (SK-MES-1; first compound 0.005 µM): 0.583
relative viability (SK-MES-1; first compound 0.01581 µM): 0.483
relative viability (SK-MES-1; first compound 0.05 µM): 0.28
relative viability (SK-MES-1; first compound 0.1581 µM): 0.179
relative viability (SK-MES-1; first compound 0.5 µM): 0.159
relative viability (NCI-H2087; first compound 0.005 µM): 0.254
relative viability (NCI-H2087; first compound 0.01581 µM): 0.25
relative viability (NCI-H2087; first compound 0.05 µM): 0.234
relative viability (NCI-H2087; first compound 0.1581 µM): 0.195
relative viability (NCI-H2087; first compound 0.5 µM): 0.174
